Test results taken from publication PMC8606745 (Frontiers in Microbiology, 2021).
Read-outs that look alike come from different tables or passages of the source. Square brackets hold non-standard residues; d marks the D form. Peptide text beside a SMILES is read from it. * marks the point of attachment. Hexanoyl = CCCCCC(=O)*

How the values were obtained:
[1] = tested on: X. fastidiosa subsp. fastidiosa IVIA 5387.2; assay type: cell-based, Xylella fastidiosa
[2] = tested on: X. fastidiosa subsp. fastidiosa IVIA 5387.2
[3] = tested on: X. fastidiosa subsp. fastidiosa IVIA 5387.2; remark: listed apart in the source
[4] = tested on: X. fastidiosa subsp. fastidiosa IVIA 5387.2; assay type: cell-based, Xylella fastidiosa; remark: listed apart in the source
Gram-negative bacteria [5] = tested on: Gram-negative bacteria; set-up: key: Xf: Xylella fastidiosa; Ec: Escherichia coli; Pa: Pseudomonas aeruginosa; Ab: Acinetobacter baumannii; Kp: Klebsiella pneumoniae; Bc: Burkholderia cenocepacia; Se: Salmonella enterica subsp. enterica; Sp: Salmonella pullorum; –: low or no activity; conditions: cited from earlier work
Gram-negative bacteria [6] = tested on: Gram-negative bacteria; set-up: key: Xf: Xylella fastidiosa; Ec: Escherichia coli; Pa: Pseudomonas aeruginosa; Ab: Acinetobacter baumannii; Kp: Klebsiella pneumoniae; Bc: Burkholderia cenocepacia; Se: Salmonella enterica subsp. enterica; Sp: Salmonella pullorum; –: low or no activity; conditions: cited from earlier work; remark: listed apart in the source

| Molecule | Biofilm formation Level (antibiofilm activity) [1] | Biofilm formation Ratio (treatment/NTC) [1] | Planktonic cells Ratio (treatment/NTC) [1] | Bactericidal activity: Reduction in viability (Log N0/N) [2] | ED50 (median effective dose, biofilm inhibition) [3] | Bimax (maximum biofilm inhibition) ([3]; 50 µM) | Biofilm formation Level (antibiofilm activity) ([1]; 50 µM) | Biofilm formation Ratio (treatment/NTC) ([1]; 50 µM) | Planktonic cells Ratio (treatment/NTC) ([1]; 50 µM) | Bactericidal activity: Reduction in viability (Log N0/N) ([2]; 50 µM) | attached biofilm cells [4] | biofilm detached cells [4] | planktonic cells [4] | Hemolysis (horse erythrocytes; 150 µM) | Hemolysis (horse erythrocytes; 250 µM) | Hemolysis (horse erythrocytes; 375 µM) | Described activity: Antibacterial (Gram-negative bacteria [5]) | Described activity: Antibiofilm (Gram-negative bacteria [6]) | Effect on X. fastidiosa growth in the antibiofilm test ([1]; 50 µM) |
| --- | --- | --- | --- | --- | --- | --- | --- | --- | --- | --- | --- | --- | --- | --- | --- | --- | --- | --- | --- |
| CC[C@H](C)[C@H](N)C(=O)N[C@@H](CC(C)C)C(=O)N1CCC[C@H]1C(=O)N[C@H](Cc1ccccc1)C(=O)N[C@@H](CCCCN)C(=O)N[C@H](Cc1ccccc1)C(=O)N1CCC[C@H]1C(=O)N[C@H](Cc1ccccc1)C(=O)N[C@H](Cc1ccccc1)C(=O)N1CCC[C@H]1C(=O)N[C@H](Cc1ccccc1)C(=O)N[C@@H](CCCNC(=N)N)C(=O)N[C@@H](CCCNC(=N)N)C(N)=O [BP525] (H-ILP[dF]K[dF]P[dF][dF]P[dF]RR-NH2) | High (key: High: high antibiofilm activity (ratio of biofilm formation from 0.01 to 0.2); Moderate: moderate activity (ratio from 0.29 to 0.47); Low: low activity (ratio from 0.72 to 0.77)) | 0.18 ± 0.01 | 1.83 ± 0.12 | 0.74 ± 0.06 Log N0/N | 4.4 ± 1.3 µM | 85.8% |  |  |  |  |  |  |  |  |  |  |  |  |  |
| CCCCCC(=O)N[C@H](C(=O)N[C@@H](CC(C)C)C(=O)N1CCC[C@H]1C(=O)N[C@H](Cc1ccccc1)C(=O)N[C@@H](CCCCN)C(=O)N[C@H](Cc1ccccc1)C(=O)N1CCC[C@H]1C(=O)N[C@H](Cc1ccccc1)C(=O)N[C@H](Cc1ccccc1)C(=O)N1CCC[C@H]1C(=O)N[C@H](Cc1ccccc1)C(=O)N[C@@H](CCCNC(=N)N)C(=O)N[C@@H](CCCNC(=N)N)C(N)=O)[C@@H](C)CC [BP527] (Hexanoyl-ILP[dF]K[dF]P[dF][dF]P[dF]RR-NH2) |  |  |  |  |  |  | High (key: High: high antibiofilm activity (ratio of biofilm formation from 0.01 to 0.2); Moderate: moderate activity (ratio from 0.29 to 0.47); Low: low activity (ratio from 0.72 to 0.77)) | 0.18 ± 0.02 | 0.58 ± 0.12 | 0.49 ± 0.04 Log N0/N | 12.5% | 45.7% | 41.7% | 62.2 ± 4.4% | 73.6 ± 1.1% | 100.0 ± 2.6% |  |  |  |
| CC[C@H](C)[C@H](NC(=O)[C@H](CCCNC(=N)N)NC(=O)[C@H](Cc1ccccc1)NC(=O)[C@H](CCCNC(=N)N)NC(=O)[C@@H](N)CCCCN)C(=O)N[C@@H](CCCNC(=N)N)C(=O)N[C@H](C(=O)N[C@@H](CCCNC(=N)N)C(=O)N[C@H](C(=O)N[C@H](C(=O)N[C@@H](CCCNC(=N)N)C(=O)N[C@@H](CCCCN)C(N)=O)[C@@H](C)CC)C(C)C)C(C)C [HH15] (H-KRFRIRVRVIRK-NH2) | High (key: High: high antibiofilm activity (ratio of biofilm formation from 0.01 to 0.2); Moderate: moderate activity (ratio from 0.29 to 0.47); Low: low activity (ratio from 0.72 to 0.77)) | 0.14 ± 0.01 | 2.50 ± 0.05 | 0.21 ± 0.02 Log N0/N |  |  |  |  |  |  |  |  |  | 2.3 ± 0.3% | 4.5 ± 1.9% | 4.0 ± 0.4% | Pa, Bc | Pa, Bc |  |
| CC[C@H](C)[C@H](NC(=O)CN)C(=O)N[C@@H](CC(C)C)C(=O)NCC(=O)N[C@@H](CCCCN)C(=O)N[C@@H](CC(C)C)C(=O)N[C@@H](Cc1c[nH]c2ccccc12)C(=O)N[C@@H](CCC(=O)O)C(=O)NCC(=O)N[C@H](C(=O)N[C@@H](CCCCN)C(=O)N[C@@H](CO)C(=O)N[C@H](C(=O)N[C@@H](Cc1ccccc1)C(N)=O)[C@@H](C)CC)C(C)C [HP1404] (H-GILGKLWEGVKSIF-NH2) | High (key: High: high antibiofilm activity (ratio of biofilm formation from 0.01 to 0.2); Moderate: moderate activity (ratio from 0.29 to 0.47); Low: low activity (ratio from 0.72 to 0.77)) | 0.15 ± 0.01 | 2.75 ± 0.02 | 0.00 ± 0.12 Log N0/N |  |  |  |  |  |  |  |  |  | 100.0 ± 0.5% | 100.0 ± 3.9% | 100.0 ± 0.7% | Pa | Pa |  |
| CC[C@H](C)[C@H](NC(=O)[C@H](CCCNC(=N)N)NC(=O)[C@@H](NC(=O)[C@H](C)NC(=O)[C@@H](NC(=O)[C@@H](NC(=O)[C@H](CC(C)C)NC(=O)[C@H](CCCNC(=N)N)NC(=O)[C@@H](N)C(C)C)[C@@H](C)CC)C(C)C)C(C)C)C(=O)N[C@@H](Cc1c[nH]c2ccccc12)C(=O)N[C@@H](CCCNC(=N)N)C(=O)N[C@@H](CCCNC(=N)N)C(N)=O [IDR-1018] (H-VRLIVAVRIWRR-NH2; N-terminus and C-terminus assumed) |  |  |  |  |  |  | High (key: High: high antibiofilm activity (ratio of biofilm formation from 0.01 to 0.2); Moderate: moderate activity (ratio from 0.29 to 0.47); Low: low activity (ratio from 0.72 to 0.77)) | 0.06 ± 0.01 | 1.72 ± 0.07 | 1.80 ± 0.01 Log N0/N |  |  |  | 35.6 ± 4.4% | 43.0 ± 0.2% | 45.9 ± 4.9% | Kp, Ec | Pa, Ec, Ab, Kp, Se, Bc |  |
| CC[C@H](C)[C@H](NC(=O)[C@H](CCCNC(=N)N)NC(=O)[C@H](Cc1c[nH]c2ccccc12)NC(=O)[C@H](CCC(N)=O)NC(=O)[C@@H](N)C(C)C)C(=O)N[C@@H](CCCNC(=N)N)C(=O)N[C@H](C(=O)N[C@@H](CCCNC(=N)N)C(=O)N[C@H](C(=O)N[C@H](C(=O)N[C@@H](CCCCN)C(=O)N[C@@H](CCCCN)C(N)=O)[C@@H](C)CC)C(C)C)C(C)C [Peptide 1026] (H-VQWRIRVRVIKK-NH2) | High (key: High: high antibiofilm activity (ratio of biofilm formation from 0.01 to 0.2); Moderate: moderate activity (ratio from 0.29 to 0.47); Low: low activity (ratio from 0.72 to 0.77)) |  | 2.10 ± 0.05 | 1.03 ± 0.07 Log N0/N |  |  |  |  |  |  | 0.7% | 19.8% | 79.5% |  |  |  |  |  |  |
| CC[C@H](C)[C@H](NC(=O)[C@H](CCCNC(=N)N)NC(=O)[C@H](Cc1ccccc1)NC(=O)[C@H](CCCNC(=N)N)NC(=O)[C@@H](N)CCCCN)C(=O)N[C@@H](CCCNC(=N)N)C(=O)N[C@H](C(=O)N[C@@H](CCCNC(=N)N)C(=O)N[C@H](C(N)=O)C(C)C)C(C)C [Peptide 1037] (H-KRFRIRVRV-NH2) | High (key: High: high antibiofilm activity (ratio of biofilm formation from 0.01 to 0.2); Moderate: moderate activity (ratio from 0.29 to 0.47); Low: low activity (ratio from 0.72 to 0.77)) | 0.15 ± 0.00 | 1.67 ± 0.05 | 0.84 ± 0.09 Log N0/N | 4.2 ± 2.4 µM |  |  |  |  |  |  |  |  |  |  |  |  |  |  |
| CC[C@H](C)[C@H](NC(=O)[C@H](CCCNC(=N)N)NC(=O)[C@H](CCCNC(=N)N)NC(=O)[C@H](CC(C)C)NC(=O)[C@H](Cc1c[nH]c2ccccc12)NC(=O)[C@H](C)NC(=O)[C@H](CCCCN)NC(=O)[C@@H](NC(=O)[C@H](CCCNC(=N)N)NC(=O)[C@H](CCCNC(=N)N)NC(=O)[C@H](CC(C)C)NC(=O)[C@@H](N)Cc1c[nH]c2ccccc12)[C@@H](C)CC)C(=O)N[C@@H](CCCCN)C(=O)N[C@@H](C)C(=O)O [RR4-OH] |  |  |  |  |  |  | High (key: High: high antibiofilm activity (ratio of biofilm formation from 0.01 to 0.2); Moderate: moderate activity (ratio from 0.29 to 0.47); Low: low activity (ratio from 0.72 to 0.77)) | 0.09 ± 0.01 | 1.87 ± 0.10 | 1.94 ± 0.03 Log N0/N |  |  |  | 3.2 ± 1.0% | 9.8 ± 3.7% | 17.8 ± 0.3% | Pa, Ab | Pa, Ab |  |
| KRIVKLILKWLR-NH2 [KR-12-a5] |  |  |  |  |  |  |  |  |  | 1.40 ± 0.07 Log N0/N |  |  |  | 79.0 ± 0.6% | 96.1 ± 1.8% | 100.0 ± 1.7% | Ec, Pa, Se | Pa | affected X. fastidiosa’s growth |
